Results published in patent publication US7553815B1, “Therapeutic use” (priority 1999, dated 2009).
Marks after values point to notes of the source that are not given here.

System: normal breast epithelium
Test: Normal breast xenografts: proliferation (Ki67 LI) and apoptosis (AI) (Example 2)
Type: in vivo, human

SMILES: COc1cc2ncnc(Nc3ccc(F)c(Cl)c3)c2cc1OCCCN1CCOCC1 [ZD1839, N-(3-chloro-4-fluorophenyl)-7-methoxy-6-(3-morpholinopropoxy)quinazolin-4-amine]
- Median LI/AI, Normal breast (Day 21, ratio of cell turnover): 3.9***
- Dose response of epithelial proliferation (Ki67 LI), FIG. 2 (normal breast, Day 28, 10-200 mg/kg): not in normal breast
